Assay results from ChEMBL document CHEMBL1201862, “PubChem BioAssay data set” (2004).
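Grown in 96-well plates, cells were treated for 48 hours with each compound at five concentrations. Insufficient inhibition: endpoint recorded as highest concentration tested. Abbreviation: GI50, concentration required for 50% inhibition of growth.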 Activity calls are given as the source filed them. Rule as the data show it: active = GI50 up to about 1.1 µM and inactive = higher.

Assays:
Experiment in all cases: NCI tumour cell line growth inhibition, 48 h
[1] = tested on: DMS-273
[2] = tested on: UACC-62
[3] = tested on: CCRF-CEM
[4] = tested on: XF498
[5] = tested on: RPMI-8226
[6] = tested on: LOX IMVI
[7] = tested on: SF-268
[8] = tested on: COLO 205
[9] = tested on: KM12
[10] = tested on: UO-31
[11] = tested on: NCI-H460
[12] = tested on: ACHN
[13] = tested on: HCC 2998
[14] = tested on: Malme-3M
[15] = tested on: MDA-MB-435
[16] = tested on: OVCAR-8
[17] = tested on: SNB-75
[18] = tested on: NCI-H226
[19] = tested on: IGROV-1
[20] = tested on: OVCAR-5

Compound | GI50 [1] | GI50 [2] | GI50 [3] | GI50 [4] | GI50 [5] | GI50 [6] | GI50 [7] | GI50 [8] | GI50 [9] | GI50 [10] | GI50 [11] | GI50 [12] | GI50 [13] | GI50 [14] | GI50 [15] | GI50 [16] | GI50 [17] | GI50 [18] | GI50 [19] | GI50 [20]
O=C1C=C(Nc2ccccc2C(=O)CC(=O)C(=O)Nc2cccc(C(F)(F)F)c2)c2ccccc2C1=O | 21.5 µM (inactive) | 15.8 µM (inactive) | 4.37 µM (inactive) | 26.2 µM (inactive) | 17.6 µM (inactive) | 6.04 µM (inactive) | 17.2 µM (inactive) | 66.8 µM (inactive) | 24 µM (inactive) | 31.2 µM (inactive) | 27.7 µM (inactive) | 28.3 µM (inactive) | > 41.8 µM (inactive) | 15.1 µM (inactive) | 7.5 µM (inactive) | 17.3 µM (inactive) | 50.4 µM (inactive) | 61.5 µM (inactive) | 28.4 µM (inactive) | > 77.1 µM (inactive)
CNC(=O)OCc1nccc2c(C)c3[nH]c4ccc(OC)cc4c3cc12 | 7.23 µM (inactive) | 6.37 µM (inactive) | 1.51 µM (inactive) | 14.1 µM (inactive) | 2.59 µM (inactive) | 3.04 µM (inactive) | 10.5 µM (inactive) | 2.94 µM (inactive) | 3.78 µM (inactive) | 3.35 µM (inactive) | 1.08 µM (active) | 1.61 µM (inactive) | 5.57 µM (inactive) | 7.98 µM (inactive) | – | 3.1 µM (inactive) | 7.82 µM (inactive) | 1.73 µM (inactive) | 4.8 µM (inactive) | 22 µM (inactive)
O=S1(=O)N2CN3CN(C2)CN1C3 | 27 µM (inactive) | 22.6 µM (inactive) | > 31.6 µM (inactive) | > 100 µM (inactive) | 28.7 µM (inactive) | 36.8 µM (inactive) | > 58.3 µM (inactive) | 25.4 µM (inactive) | 93.8 µM (inactive) | 182 µM (inactive) | 51.5 µM (inactive) | 108 µM (inactive) | 255 µM (inactive) | 129 µM (inactive) | – | > 86.5 µM (inactive) | 28.8 µM (inactive) | 28.1 µM (inactive) | 278 µM (inactive) | 208 µM (inactive)
Cc1ccccc1NC(=O)/C(=N/NC(=O)CC#N)C1C(=O)N(c2ccccc2)N=C1N (stereo unspecified) | > 100 µM (inactive) | > 100 µM (inactive) | 31.3 µM (inactive) | > 100 µM (inactive) | 96.2 µM (inactive) | > 100 µM (inactive) | > 100 µM (inactive) | > 100 µM (inactive) | > 100 µM (inactive) | > 100 µM (inactive) | > 100 µM (inactive) | 60.1 µM (inactive) | > 100 µM (inactive) | > 100 µM (inactive) | – | > 100 µM (inactive) | > 100 µM (inactive) | > 100 µM (inactive) | > 100 µM (inactive) | > 100 µM (inactive)
CN(C)CC1(Cc2ccccc2)CCC(Cc2ccccc2)C1=O (stereo unspecified) | 10.5 µM (inactive) | 16.5 µM (inactive) | 2.79 µM (inactive) | 21.9 µM (inactive) | 1.89 µM (inactive) | 6.9 µM (inactive) | 14.8 µM (inactive) | 6.85 µM (inactive) | 8.36 µM (inactive) | 16.9 µM (inactive) | 12.2 µM (inactive) | 16.1 µM (inactive) | 7.05 µM (inactive) | 12.5 µM (inactive) | 10.2 µM (inactive) | 5.73 µM (inactive) | 14.4 µM (inactive) | 20.1 µM (inactive) | 9.04 µM (inactive) | 18 µM (inactive)
CC1(C)C(=O)N(CCCCCCN2C(=O)C(C)(C)c3ccccc32)c2ccccc21 | 40.9 µM (inactive) | 22.9 µM (inactive) | 22.4 µM (inactive) | 16.5 µM (inactive) | 23 µM (inactive) | 22 µM (inactive) | 60.8 µM (inactive) | 22.1 µM (inactive) | 37.9 µM (inactive) | 31.2 µM (inactive) | 54.3 µM (inactive) | 25.6 µM (inactive) | 71.6 µM (inactive) | 25.9 µM (inactive) | – | 51.3 µM (inactive) | 39.1 µM (inactive) | 26.3 µM (inactive) | 88.3 µM (inactive) | 80.5 µM (inactive)
